Experiments:
[1] = UV-visible spectrophotometric titration with CuCl2 (metal/ligand stoichiometry); type: binding; conditions: 15 μM ligand; Tris-HCl buffer pH 7.4/organic solvent, per ligand as in Table 3 column Solvent
[2] = UV-visible spectrophotometric titration with ZnCl2 (metal/ligand stoichiometry); type: binding; conditions: 15 μM ligand; Tris-HCl buffer pH 7.4/organic solvent, per ligand as in Table 3 column Solvent
Method: An organic solvent (CH3OH, dioxane or DMSO) was added in order to achieve good solubility of the ligands and metal complexes in the concentrations used in these experiments. Exact proportions of the organic solvent/buffer mixture are specified for each UV-visible characterisation of the different ligands or metal complexes.
Aliquot portions of concentrated CuCl2 or ZnCl2 solutions (M) are added to a 15 μM ligand solution so as to induce only negligible variations in volume. After each addition, changes in absorption spectra are observed immediately and are consistent between two additions, which corresponds to a rapid complexing process. The exact absorption values relating to each ligand and the copper(II) or zinc(II) complexes thereof are detailed hereinafter in the Experimental part (in the Synthesis part for ligands and hereinafter for the metal complexes).
The stoichiometry of the different ligands (L) for Cu(II) or ZN(II) have therefore been determined spectrophotometrically by metal ion titration. In this example, for an M/L ratio increasing from 0 to 1, π→π* with transition, centred at 251 nm for the free ligand, is shifted to a lower energy with a concomitant appearance of an absorption band in the visible region of the spectrum (λmax to 383 nm), which is probably the result of an MLCT transition. For greater M/L ratios, no additional change in the UV-visible absorption spectra is observed.

[3] = Competition reaction between ligand (Ls), ZnCl2 and competing chelator (Lc), UV-visible; affinity constants; type: binding; conditions: for % MLs: Zn(II), EDTA as Lc, 1/1/1 at 15 μM
Method: An organic solvent (CH3OH, dioxane or DMSO) was added in order to achieve good solubility of all the ligands and metal complexes in the concentrations used in these experiments.
As the concentration [MLs]=x % of C is measured on the UV-visible spectra, the concentrations [Ls]=(1−x) % of C, [MLc]=(1−x) % of C and [Lc]=x % of C can be deduced therefrom and:
In these conditions, [MLs]=[MLc]; [MLs]+[Lc]=Y, y≧50 and:
When log Ks 6, these equations are not used since the percentages of metal ion which is free in the solution or chelated by the solvent or the buffer are not negligible.

Aβ1-42 = target: T1, Aβ1-42 (Homo sapiens, UniProt P05067); assay: Inhibition of the precipitation of Aβ1-42 by the addition of ligand (Micro BCA assay of soluble/aggregated peptide); type: biochemical; conditions: Aβ1-42 5 μM, pH 7.4; for CuCl2 % soluble Aβ: 20 μM CuCl2, 1 h 37° C. then 1 h with 200 μM ligand; for FeCl3 % soluble Aβ: 20 μM FeCl3, 1 h 37° C. then 1 h with 200 μM ligand; for ZnCl2 % soluble Aβ: 20 μM ZnCl2, 1 h 37° C. then 1 h with 200 μM ligand; for without metal % soluble Aβ: no metal salt, 1 h 37° C. then 1 h with 200 μM ligand
T1 construct: The β-amyloid peptide Aβ1-42 (Aβ1-42) was synthesised, purified (to a purity greater than 95%); made in house; host or cells: chemical peptide synthesis (no expression host)
How it was run: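 Aβ1-42 (5 μM) pre-aggregated 1 h at 37 °C with stirring in 20 mM Tris-HCl/150 mM NaCl pH 7.4, with or without CuCl2, ZnCl2 or FeCl3 (20 μM). Ligand (200 μM, DMSO) added, 1 further hour at 37 °C; after centrifugation, peptide in supernatant and pellet quantified by Micro BCA against BSA standards.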

[4] = Determination of log D7.4 (1-octanol / Tris-HCl buffer); type: physicochemical; conditions: 1-octanol / 20 mM Tris-HCl buffer containing 150 mM NaCl (pH = 7.4) (1/1, v/v)
How it was run: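 Ligand partitioned between 1-octanol and 20 mM Tris-HCl pH 7.4 with 150 mM NaCl: vortexed 3 min at ambient temperature, centrifuged, each phase quantified by UV-visible spectrophotometry. log D7.4 is log of octanol/buffer concentration ratio, measured three times.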

[5] = Competition reaction between ligand (Ls), CuCl2 and competing chelator (Lc), UV-visible; affinity constants; conditions: for number of Lc equivalents making it possible to form 50% of CuLs, Lc = EDTA: mixture of Ls (15 μM, 1 equivalent) and CuCl2 (1/1, mol/mol); for % MLs: Cu(II), EDTA as Lc, 1/1/1 at 15 μM
Method: An organic solvent (CH3OH, dioxane or DMSO) was added in order to achieve good solubility of all the ligands and metal complexes in the concentrations used in these experiments. Monitoring has shown that all the ligands and metal complexes examined yield results corresponding to the Beer-Lambert Law in the experimental conditions used.
Lc competing chelators were selected to provide a range of stability constants for the metal ion M presenting intervals of approximately one or two log units, as well as to make it possible for each competition experiment to quantify one of the Ls, MLs, Lcc or MLc species with a UV-vis spectrum wavelength without contaminating the three other species (FIG. 7). […] As the concentration [MLs]=x % of C is measured on the UV-visible spectra, the concentrations [Ls]=(1−x) % of C, [MLc]=(1−x) % of C and [Lc]=x % of C can be deduced therefrom and:

[6] = Ls/ZnCl2/Lc 1/1/1 at 15 μM, solvent per ligand as in Table 3
[7] = Ls/CuCl2/Lc 1/1/1 at 15 μM, solvent per ligand as in Table 3

T1 sequence (P05067 672-713): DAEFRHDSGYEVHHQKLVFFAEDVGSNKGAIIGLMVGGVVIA

Structure (SMILES)	Complex observed by titration with Cu^II (observed L/Cu(II) stoichiometry) [1]	Complex observed by titration with Zn^II (observed L/Zn(II) stoichiometry) [2]	percentage of ZnLs species at equilibrium, competing ligand EDTA [3, 6] [%]	CuCl2 % soluble Aβ (Aβ1-42) [%]	FeCl3 % soluble Aβ (Aβ1-42) [%]	ZnCl2 % soluble Aβ (Aβ1-42) [%]	without metal % soluble Aβ (Aβ1-42) [%]	logD at 3 min [4]	percentage of the CuLs species at equilibrium, competing ligand EDDA [5, 7] [%]	percentage of the CuLs species at equilibrium, competing ligand EDTA [5, 7] [%]	percentage of the CuLs species at equilibrium, competing ligand HIDA [5, 7] [%]	number of Lc equivalents making it possible to form 50% of CuLs, Lc = EDTA [5] [eq]	log D7.4 [4]	also measured
CC(C)(c1ccc2c(Cl)ccc(O)c2n1)c1ccc2c(Cl)ccc(O)c2n1 [Compound 4, 2,2′-(2,2-Propanediyl)-bis(5-chloro-8-hydroxyquinoline)]	Cu^II(1/1)	LZn^II(1/1)	20	30	45	49	55	4.9 ± 0.1	90	40	100	0.65		
O=C(c1ccc2cccc(O)c2n1)c1ccc2cccc(O)c2n1 [Compound 6, Bis(8-hydroxy-2-quinoline)methanone]	LCu^II(1/1)	LZn^II(1/1)	75	58 ± 3	51	54	56			75			3.9 ± 0.1	
c1cnc2c(Nc3cccc4cccnc34)cccc2c1 [Compound 12, Bis(8-quinoline)amine]	LCu^II(1/1)	LZn^II(1/1)		69 ± 2	59	52	69			55			3.5 ± 0.1	Log KZn^II ([3]; affinity constant at pH = 7.4, solvent per ligand as in Table 3 column Solvent, Equation 8 (a) or 7 (b)): ≈6
CC(C)(c1ccc2cccc(O)c2n1)c1ccc2cccc(O)c2n1 [Compound 3, 2,2′-(2,2-propanediyl)-bis(8-hydroxyquinoline)]		LZn^II(1/1)	30	47 ± 3	60	59	56	4.4 ± 0.1	100	50	100	1		percentage of ZnLs species at equilibrium, competing ligand DTPA [3, 6]: 20%; percentage of ZnLs species at equilibrium, competing ligand EGTA [3, 6]: 100%; percentage of ZnLs species at equilibrium, competing ligand NTA [3, 6]: 100%; percentage of ZnLs species at equilibrium, competing ligand Trien [3, 6]: 100%; % MLs ([3]; Buffer/CH3OH (1/1)): 30%; % MLs ([3]; Buffer/DMSO (2/8)): 35%; % MLs ([3]; Buffer/dioxane (2/8)): 33%; % MLs ([3]; CH3OH): 40%; number of Lc equivalents making it possible to form 50% of ZnLs, Lc = EDTA ([3]; mixture of Ls (15 μM, 1 equivalent) and ZnCl2 (1/1, mol/mol)): 0.7 eq; % MLs ([5]; Buffer/CH3OH (1/1)): 50%; % MLs ([5]; Buffer/DMSO (2/8)): 55%; % MLs ([5]; Buffer/dioxane (1/1)): 45%; percentage of the CuLs species at equilibrium, competing ligand CTDA [5, 7]: 15%; percentage of the CuLs species at equilibrium, competing ligand EDA [5, 7]: 100%; percentage of the CuLs species at equilibrium, competing ligand Tetren [5, 7]: 0%; percentage of the CuLs species at equilibrium, competing ligand Trien [5, 7]: 30%; percentage of the CuLs species at equilibrium, competing ligand biPy [5, 7]: 100%
Oc1cccc2ccc(C(F)(F)c3ccc4cccc(O)c4n3)nc12 [Compound 5, 2,2′-(Difluoromethanediyl)-bis(8-hydroxyquinoline)]	LCu^II(1/1)	LZn^II(1/1)	55	51 ± 1	52	50	60	3.8 ± 0.1		45				

Source: patent publication US20120277265A1, “NOVEL POLYQUINOLINE DERIVATIVES AND THE THERAPEUTIC USE THEREOF” (CENTRE NATIONAL DE LA RECHERCHE SCIENTIFIQUE (C.N.R.S.), priority 2005, published 2012)
